Measured values taken from patent US20120134933A1, “USE OF HIGH-DOSES OF MONOMERIC CONTRAST MEDIUM CONTAINING IODINE IN X-RAY DIAGNOSTICS, IN PARTICULAR IN INTERVENTIONAL X-RAY DIAGNOSTICS AND IN RADIATION THERAPY ASSISTED BY CONTRAST MEDIA CONTAINING IODINE” (BAYER PHARMA AKTIENGESELLSCHAFT, priority 2009, published 2012).

Tests used:
Assay type in all cases: in vivo, Wistar Han rats
[1] = Renal cortex iodine content 24 hours after injection of XCM, X-ray attenuation by CT; details: rat, 4 g of iodine per kg of BW i.v., 80 kV, mean +/- SD, 6 animals
Method: (§1) For the study, use was made of the following XCMs, each obtained from their producer. The monomeric XCMs investigated were iopromide 300 (Bayer Vital, Leverkusen), iomeprol 300 (Altana, Konstanz, Germany), and iohexyl 350 (Omnipaque, GE Healthcare, Munich, Germany). For comparison, Isovist 300 (Bayer Vital, Leverkusen) and iodixanol 320 and iodixanol 270 (Visipaque, GE Healthcare, Munich, Germany), two dimeric XCMs, were also included in the study. The XCMs were injected in one dose of 4 g per kg of body weight (BW). As with all toxicological issues, it should be noted that the conversion to the human dose has to be based on body surface area. Thus, 4 g of iodine per kg of BW in the rat correspond to about 0.6 g of iodine per kg of BW in humans.
(§2) Wistar Han (CRL: WI) rats (male; 230-300 g) were obtained from Charles River (Sulzfeld, Germany). The animals were kept under normal laboratory conditions at a temperature of 22° C. and a night/day rhythm of 12 hours. The animals had access to standard feed and water ad libitum. The animals were kept and treated in accordance with the German animal welfare guidelines.
(§3) The respective XCMs were intravenously (i.v.) injected in one dose of 4 g of iodine per kg of BW (corresponds to 0.6 g of iodine per kg of BW in humans) into the tail vein. […] The iodine concentrations in the kidneys were determined ex vivo by X-ray fluorescence analysis (XFA). […] The kidneys were lysed in 10% KOH, and the iodine concentration in the sample was subsequently determined by XFA. The iodine concentrations in the renal cortex were determined 24 hours after the injection using a 64-slice CT scanner (Sensation 64, Siemens Medical Solutions, Erlangen, Germany). Scanner settings (80 kV, 120 mAseff) were used for all investigations, and the reconstructions were carried out with an image field of 70×70 mm and a thickness of 1 mm The X-ray attenuation in Hounsfield units (HU) was determined in the cortex of the kidney in 3 independent regions of interest (ROI) (FIG. 2). All data were carried out by two independent blinded readers.

tubular cells = assay: Vacuolization in the kidney 24 hours after injection of XCM (histology of paraffin sections); details: rat, 4 g of iodine per kg of BW i.v.; for degree of vacuolization in the kidney (in words): compared among monomeric XCMs
Method: as §1, §2
The respective XCMs were intravenously (i.v.) injected in one dose of 4 g of iodine per kg of BW (corresponds to 0.6 g of iodine per kg of BW in humans) into the tail vein. The XCMs were manually injected as a bolus, followed by a 0.2 ml bolus of saline solution. Each test group consisted of 6 test animals. The iodine concentrations in the kidneys were determined ex vivo by X-ray fluorescence analysis (XFA). 24 hours after the XCM injection, the animals were sacrificed and both kidneys were removed. The kidneys were lysed in 10% KOH, and the iodine concentration in the sample was subsequently determined by XFA. The iodine concentrations in the renal cortex were determined 24 hours after the injection using a 64-slice CT scanner (Sensation 64, Siemens Medical Solutions, Erlangen, Germany). Scanner settings (80 kV, 120 mAseff) were used for all investigations, and the reconstructions were carried out with an image field of 70×70 mm and a thickness of 1 mm The X-ray attenuation in Hounsfield units (HU) was determined in the cortex of the kidney in 3 independent regions of interest (ROI) (FIG. 2). All data were carried out by two independent blinded readers.
To determine the degree of vacuolization, a kidney was removed 24 after the injection of the XCMs and a medial piece of tissue was fixed in formaldehyde and embedded in paraffin. The microtome sections were stained with hematoxylin, and the degree of vacuolization was determined. The determination of the degree of vacuolization was carried out in a blinded experiment by Dr. Haider, Institut für Tierpathologie [Institute for Animal Pathology].

[2] = Renal iodine content 24 hours after injection of XCM, X-ray fluorescence analysis (XFA) of lysed kidneys; details: rat, 4 g of iodine per kg of BW i.v., mean +/- SD, 6 animals
Method: as §1, §2, §3

[3] = of 6 animals, listed as Iopromide 300
[4] = of 6 animals, listed as iopromide

X-ray attenuation in the renal cortex (CT) [1]	degree of vacuolization in the kidney (in words) (tubular cells)	Slight degree of vacuolization (number of animals) (tubular cells; of 6 animals)	Slight degree of vacuolization (number of animals) (tubular cells; of 6 animals, listed as Iomeprol 300)	Moderate degree of vacuolization (number of animals) (tubular cells; of 6 animals)	No vacuolization (number of animals) (tubular cells; [3])	Slight degree of vacuolization (number of animals) (tubular cells; [3])	No vacuolization (number of animals) (tubular cells; [4])	Slight degree of vacuolization (number of animals) (tubular cells; [4])	Compound	iodine concentration in the kidney (XFA) [2]
45.0+/−5.9 HU	increased vacuolization	all the animals investigated	6						CN(C(=O)CO)c1c(I)c(C(=O)NCC(O)CO)c(I)c(C(=O)NCC(O)CO)c1I (centres unmarked) [iomeprol 300]	0.738+/−0.098 mg of iodine per g of kidney tissue
	increased vacuolization	3		3					CC(=O)N(CC(O)CO)c1c(I)c(C(=O)NCC(O)CO)c(I)c(C(=O)NCC(O)CO)c1I (centres unmarked) [iohexyl 350]	
significantly lowest values	lowest degree of vacuolization				2	4	Two	four	COCC(=O)Nc1c(I)c(C(=O)NCC(O)CO)c(I)c(C(=O)N(C)CC(O)CO)c1I (centres unmarked) [iopromide 300, N,N′-bis(2,3-dihydroxypropyl)-2,4,6-triiodo-5-[(methoxyacetyl)amino]-N-methyl-1,3-benzenedicarboxamide]	significantly lowest iodine contents
217.2+/−29.4 HU									CN(C(=O)CC(=O)N(C)c1c(I)c(C(=O)NC(CO)C(O)CO)c(I)c(C(=O)NC(CO)C(O)CO)c1I)c1c(I)c(C(=O)NC(CO)C(O)CO)c(I)c(C(=O)NC(CO)C(O)CO)c1I (centres unmarked) [iotrolan 300]	3.4+/−0.6 mg of iodine per g of kidney tissue
